# According to patent US9988400B2 (Genentech, Inc., priority 2013, dated 2018):
# pEC50: −log10 of the molar value.
# Biological target: T1, HEK cells stably transfected with tetracycline inducible hNR1 and hNR2A (Homo sapiens, UniProt Q05586+Q12879)
# T1 construct: expressed in transfected cells; host or cells: HEK cells, stably transfected, tetracycline/doxycycline inducible
# Assay: Assay 1: Cell-Based Assay, cytosolic calcium response to positive allosteric modulators (with 30 μM glycine and 300 nM L-glutamate, EC30)
# Details: Table 3; cytosolic calcium response, with 30 μM glycine and 300 nM L-glutamate (EC30); — = no plateau was reached
# How it was run: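 Cells induced 24 h with 7.5 μg mL^−1 doxycycline plus 500 μM (+)-ketamine, loaded 60 min at 37 °C with calcium dye in Mg-free HBSS (1.8 mM Ca, probenecid, 10 μM (+)-ketamine, pH 7.15). Peak RFU over 5 min after compound addition, scaled to 100 μM L-glutamate (100%) and 0 μM (0%); four-parameter Hill fit for EC50, max % if no plateau.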
# T1 sequence (Q12879 23-1464, other chains not shown): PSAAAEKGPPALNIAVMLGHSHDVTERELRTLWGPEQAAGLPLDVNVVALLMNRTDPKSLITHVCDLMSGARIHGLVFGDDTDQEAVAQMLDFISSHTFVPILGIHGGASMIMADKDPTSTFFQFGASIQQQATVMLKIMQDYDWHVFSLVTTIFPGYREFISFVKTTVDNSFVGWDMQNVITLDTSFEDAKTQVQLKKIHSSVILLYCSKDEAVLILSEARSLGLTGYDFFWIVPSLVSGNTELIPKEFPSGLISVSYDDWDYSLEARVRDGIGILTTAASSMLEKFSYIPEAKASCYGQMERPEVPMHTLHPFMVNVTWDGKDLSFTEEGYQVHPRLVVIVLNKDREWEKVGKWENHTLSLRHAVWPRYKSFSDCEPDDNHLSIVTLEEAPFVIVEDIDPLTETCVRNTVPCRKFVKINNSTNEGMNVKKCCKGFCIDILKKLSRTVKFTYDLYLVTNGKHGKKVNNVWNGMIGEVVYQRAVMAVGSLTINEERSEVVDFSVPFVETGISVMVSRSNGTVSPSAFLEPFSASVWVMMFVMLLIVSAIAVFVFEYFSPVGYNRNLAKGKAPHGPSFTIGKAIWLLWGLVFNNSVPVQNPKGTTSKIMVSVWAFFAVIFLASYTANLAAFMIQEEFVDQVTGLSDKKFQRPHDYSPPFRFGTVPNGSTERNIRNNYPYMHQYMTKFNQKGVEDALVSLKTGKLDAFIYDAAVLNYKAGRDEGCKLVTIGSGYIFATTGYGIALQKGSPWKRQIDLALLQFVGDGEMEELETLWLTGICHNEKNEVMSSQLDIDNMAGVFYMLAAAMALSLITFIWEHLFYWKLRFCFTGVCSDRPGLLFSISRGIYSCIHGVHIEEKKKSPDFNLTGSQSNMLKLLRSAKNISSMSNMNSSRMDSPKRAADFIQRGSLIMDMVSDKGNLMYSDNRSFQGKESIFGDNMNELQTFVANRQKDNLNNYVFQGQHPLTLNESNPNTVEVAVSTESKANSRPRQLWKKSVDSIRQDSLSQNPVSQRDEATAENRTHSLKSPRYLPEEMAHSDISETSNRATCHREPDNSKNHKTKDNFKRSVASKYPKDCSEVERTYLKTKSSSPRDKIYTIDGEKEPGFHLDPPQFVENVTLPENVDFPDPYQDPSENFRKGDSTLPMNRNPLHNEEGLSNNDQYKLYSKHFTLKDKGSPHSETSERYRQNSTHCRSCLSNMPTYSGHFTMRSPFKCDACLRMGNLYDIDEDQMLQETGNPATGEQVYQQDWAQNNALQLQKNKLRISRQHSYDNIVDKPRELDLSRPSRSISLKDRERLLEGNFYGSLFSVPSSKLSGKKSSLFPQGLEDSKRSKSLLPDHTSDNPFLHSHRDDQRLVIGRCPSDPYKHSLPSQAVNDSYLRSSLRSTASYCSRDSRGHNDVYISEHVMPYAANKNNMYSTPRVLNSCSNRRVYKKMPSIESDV
row,pEC50,Structure (SMILES)
1,5.41,"Cc1sc2nc(Cn3nc(C(F)(F)F)cc3Cl)cc(=O)n2c1Cn1cccn1 [compound 186, 7-[[5-chloro-3-(trifluoromethyl)pyrazol-1-yl]methyl]-2-methyl-3-(pyrazol-1-ylmethyl)thiazolo[3,2-a]pyrimidin-5-one]"
2,4.95,"Cc1sc2nc(Cc3cc(C(F)(F)F)ccc3Cl)cc(=O)n2c1C1CC1C#N (stereo not drawn) [compound 187, 2-[7-[[2-chloro-5-(trifluoromethyl)phenyl]methyl]-2-methyl-5-oxo-thiazolo[3,2-a]pyrimidin-3-yl]cyclopropanecarbonitrile]"
3,5.50,"Cc1sc2nc(Cn3nc(C(F)(F)F)cc3Cl)cc(=O)n2c1C1CCC1 [compound 188, 7-[[5-chloro-3-(trifluoromethyl)pyrazol-1-yl]methyl]-3-cyclobutyl-2-methyl-thiazolo[3,2-a]pyrimidin-5-one]"
4,5.13,"Cc1sc2nc(Cn3nc(Cl)cc3C(F)(F)F)cc(=O)n2c1C1CCC1 [compound 189, 7-[[3-chloro-5-(trifluoromethyl)pyrazol-1-yl]methyl]-3-cyclobutyl-2-methyl-thiazolo[3,2-a]pyrimidin-5-one]"
5,6.11,"Cc1sc2nc(CN(C)c3ccc(Cl)cn3)cc(=O)n2c1C1CC1C#N (stereo not drawn) [compound 190, 2-[7-[[(5-chloro-2-pyridyl)-methyl-amino]methyl]-2-methyl-5-oxo-thiazolo[3,2-a]pyrimidin-3-yl]cyclopropanecarbonitrile]"
6,6.70,"Cc1sc2nc(Cn3nc(C(F)(F)F)cc3Cl)cc(=O)n2c1Cl [compound 192, 3-chloro-7-[[5-chloro-3-(trifluoromethyl)pyrazol-1-yl]methyl]-2-methyl-thiazolo[3,2-a]pyrimidin-5-one]"
7,6.61,"Cc1sc2nc(Cn3nc(Cl)cc3C(F)(F)F)cc(=O)n2c1Cl [compound 193, 3-chloro-7-[[3-chloro-5-(trifluoromethyl)pyrazol-1-yl]methyl]-2-methyl-thiazolo[3,2-a]pyrimidin-5-one]"
8,5.89,"COc1cc(F)c(F)cc1Cc1cc(=O)n2c(C3CC3C#N)c(C)sc2n1 (stereo not drawn) [compound 194, 2-[7-[(4,5-difluoro-2-methoxy-phenyl)methyl]-2-methyl-5-oxo-thiazolo[3,2-a]pyrimidin-3-yl]cyclopropanecarbonitrile]"
9,7.13,"CCN(Cc1cc(=O)n2c(C3CC3C#N)c(C)sc2n1)c1ccc(F)cn1 (stereo not drawn) [compound 195, 2-[7-[[ethyl-(5-fluoro-2-pyridyl)amino]methyl]-2-methyl-5-oxo-thiazolo[3,2-a]pyrimidin-3-yl]cyclopropanecarbonitrile]"
10,7.19,"CCN(Cc1cc(=O)n2c(C3CC3CO)c(C)sc2n1)c1ccc(Cl)cn1 (stereo not drawn) [compound 196, 7-[[(5-chloro-2-pyridyl)-ethyl-amino]methyl]-3-[2-(hydroxymethyl)cyclopropyl]-2-methyl-thiazolo[3,2-a]pyrimidin-5-one]"
11,6.49,"Cc1sc2nc(Cn3nc(C(F)(F)F)cc3Cl)cc(=O)n2c1-c1cncc(C#N)c1 [compound 197, 5-[7-[[5-chloro-3-(trifluoromethyl)pyrazol-1-yl]methyl]-2-methyl-5-oxo-thiazolo[3,2-a]pyrimidin-3-yl]pyridine-3-carbonitrile]"
12,6.70,"Cc1sc2nc(Cn3nc(C(F)(F)F)cc3Cl)cc(=O)n2c1C(=O)C(F)(F)F [compound 198, 7-[[5-chloro-3-(trifluoromethyl)pyrazol-1-yl]methyl]-2-methyl-3-(2,2,2-trifluoroacetyl)thiazolo[3,2-a]pyrimidin-5-one]"
13,5.86,"CC1CC1c1c(C(F)(F)F)sc2nc(Cn3nc(C(F)(F)F)cc3Cl)cc(=O)n12 (stereo not drawn) [compound 199, 7-[[5-chloro-3-(trifluoromethyl)pyrazol-1-yl]methyl]-3-(2-methylcyclopropyl)-2-(trifluoromethyl)thiazolo[3,2-a]pyrimidin-5-one]"
14,5.50,"CC1CC1c1c(C(F)(F)F)sc2nc(Cn3nc(Cl)cc3C(F)(F)F)cc(=O)n12 (stereo not drawn) [compound 200, 7-[[3-chloro-5-(trifluoromethyl)pyrazol-1-yl]methyl]-3-(2-methylcyclopropyl)-2-(trifluoromethyl)thiazolo[3,2-a]pyrimidin-5-one]"
15,4.62,"CCc1sc2nc(Cn3nc(C(F)(F)F)cc3Cl)cc(=O)n2c1-c1cccnc1 [compound 202, 7-[[5-chloro-3-(trifluoromethyl)pyrazol-1-yl]methyl]-2-ethyl-3-(3-pyridyl)thiazolo[3,2-a]pyrimidin-5-one]"
16,5.23,"Cc1sc2nc(Cn3nc(C(F)(F)F)cc3Cl)cc(=O)n2c1C(O)C(F)(F)F (stereo not drawn) [compound 203, 7-[[5-chloro-3-(trifluoromethyl)pyrazol-1-yl]methyl]-2-methyl-3-(2,2,2-trifluoro-1-hydroxy-ethyl)thiazolo[3,2-a]pyrimidin-5-one]"
17,5.29,"CCNC(=O)c1c(C)sc2nc(CN(CC)c3ccc(Br)cn3)cc(=O)n12 [compound 204, 7-[[(5-bromo-2-pyridyl)-ethyl-amino]methyl]-N-ethyl-2-methyl-5-oxo-thiazolo[3,2-a]pyrimidine-3-carboxamide]"

row,pEC50,Structure (SMILES)
1,5.95,"CCNC(=O)c1c(C(F)(F)F)sc2nc(CN(CC)c3ccc(F)cn3)cc(=O)n12 [compound 205, N-ethyl-7-[[ethyl-(5-fluoro-2-pyridyl)amino]methyl]-5-oxo-2-(trifluoromethyl)thiazolo[3,2-a]pyrimidine-3-carboxamide]"
2,5.14,"O=c1cc(Cn2nc(C(F)(F)F)cc2Cl)nc2sc(C(F)(F)F)c(N3CCC3)n12 [compound 206, 3-(Azetidin-1-yl)-7-[[5-chloro-3-(trifluoromethyl)pyrazol-1-yl]methyl]-2-(trifluoromethyl)thiazolo[3,2-a]pyrimidin-5-one]"
3,7.18,"COc1cc(C(F)(F)F)nn1Cc1cc(=O)n2c(C3CC3C#N)c(C)sc2n1 (stereo not drawn) [compound 209, 2-[7-[[5-methoxy-3-(trifluoromethyl)pyrazol-1-yl]methyl]-2-methyl-5-oxo-thiazolo[3,2-a]pyrimidin-3-yl]cyclopropanecarbonitrile]"
4,5.05,"COc1cc(C(F)(F)F)n(Cc2cc(=O)n3c(C4CC4C#N)c(C)sc3n2)n1 (stereo not drawn) [compound 210, 2-[7-[[3-methoxy-5-(trifluoromethyl)pyrazol-1-yl]methyl]-2-methyl-5-oxo-thiazolo[3,2-a]pyrimidin-3-yl]cyclopropanecarbonitrile]"
5,6.51,"CCc1sc2nc(Cn3nc(C(F)(F)F)cc3Cl)cc(=O)n2c1C(C)=O [compound 211, 3-acetyl-7-[[5-chloro-3-(trifluoromethyl)pyrazol-1-yl]methyl]-2-ethyl-thiazolo[3,2-a]pyrimidin-5-one]"
6,5.23,"CCc1sc2nc(Cn3nc(Cl)cc3C(F)(F)F)cc(=O)n2c1C(C)=O [compound 212, 3-acetyl-7-[[3-chloro-5-(trifluoromethyl)pyrazol-1-yl]methyl]-2-ethyl-thiazolo[3,2-a]pyrimidin-5-one]"
7,7.18,"CCc1sc2nc(Cn3nc(C(F)(F)F)cc3Cl)cc(=O)n2c1C1CC1C#N (stereo not drawn) [compound 213, 2-[7-[[5-chloro-3-(trifluoromethyl)pyrazol-1-yl]methyl]-2-ethyl-5-oxo-thiazolo[3,2-a]pyrimidin-3-yl]cyclopropanecarbonitrile]"
8,6.74,"CCc1sc2nc(Cn3nc(Cl)cc3C(F)(F)F)cc(=O)n2c1C1CC1C#N (stereo not drawn) [compound 214, 2-[7-[[3-chloro-5-(trifluoromethyl)pyrazol-1-yl]methyl]-2-ethyl-5-oxo-thiazolo[3,2-a]pyrimidin-3-yl]cyclopropanecarbonitrile]"
9,7.04,"Cc1sc2nc(Cn3nc(C(F)(F)F)cc3Cl)cc(=O)n2c1Br [compound 215, 3-bromo-7-[[5-chloro-3-(trifluoromethyl)pyrazol-1-yl]methyl]-2-methyl-thiazolo[3,2-a]pyrimidin-5-one]"
10,7.23,"Cc1sc2nc(Cn3nc(Cl)cc3C(F)(F)F)cc(=O)n2c1Br [compound 216, 3-bromo-7-[[3-chloro-5-(trifluoromethyl)pyrazol-1-yl]methyl]-2-methyl-thiazolo[3,2-a]pyrimidin-5-one]"
11,5.32,"COc1sc2nc(Cn3nc(C(F)(F)F)cc3Cl)cc(=O)n2c1Cl [compound 217, 3-chloro-7-[[5-chloro-3-(trifluoromethyl)pyrazol-1-yl]methyl]-2-methoxy-thiazolo[3,2-a]pyrimidin-5-one]"
12,4.08,"COc1sc2nc(Cn3nc(Cl)cc3C(F)(F)F)cc(=O)n2c1Cl [compound 218, 3-chloro-7-[[3-chloro-5-(trifluoromethyl)pyrazol-1-yl]methyl]-2-methoxy-thiazolo[3,2-a]pyrimidin-5-one]"
13,4.98,"CSc1c(C(F)(F)F)sc2nc(Cn3nc(C(F)(F)F)cc3Cl)cc(=O)n12 [compound 219, 7-[[5-chloro-3-(trifluoromethyl)pyrazol-1-yl]methyl]-3-methylsulfanyl-2-(trifluoromethyl)thiazolo[3,2-a]pyrimidin-5-one]"
14,4.33,"CCN(Cc1cc(=O)n2c(C3CC3(C#N)CO)csc2n1)c1ccc(F)cc1 (stereo not drawn) [compound 220, 2-[7-[(N-Ethyl-4-fluoro-anilino)methyl]-5-oxo-thiazolo[3,2-a]pyrimidin-3-yl]-1-(hydroxymethyl)cyclopropanecarbonitrile]"
15,5.42,"Cc1sc2nc(Cn3nc(C(F)(F)F)cc3Cl)cc(=O)n2c1CC1CC1 [compound 221, 7-[[5-chloro-3-(trifluoromethyl)pyrazol-1-yl]methyl]-3-(cyclopropylmethyl)-2-methyl-thiazolo[3,2-a]pyrimidin-5-one]"
16,5.53,"Cc1sc2nc(Cn3nc(C(F)(F)F)cc3Cl)cc(=O)n2c1C(C)CO (stereo not drawn) [compound 222, 7-[[5-Chloro-3-(trifluoromethyl)pyrazol-1-yl]methyl]-3-(2-hydroxy-1-methyl-ethyl)-2-methyl-thiazolo[3,2-a]pyrimidin-5-one]"
